# Measurements published in ChEMBL document CHEMBL6127085, “Design, synthesis and evaluation of novel LpxC inhibitors containing a hydrazone moiety as Gram-negative antibacterial agents” (Eur J Med Chem, 2024).
# Tests used:
# [1] = Intrinsic clearance in rat; assay type: ADME; conditions: read-out: CLH
# [2] = Metabolic stability in human liver microsomes assessed as half life at 1 uM preincubated for 5 mins followed by NADPH addition and measured after 5 to 60 mins by LC-MS analysis; assay type: ADME, Microsome; conditions: liver microsomes, time 10-65 min
# [3] = tested on: Pseudomonas aeruginosa; test: Antibacterial activity against Pseudomonas aeruginosa ATCC27853 assessed as reduction in bacterial growth measured after 18 to 24 hrs by CLSI protocol based method; assay type: functional; conditions: time 18-24 hrs
# [4] = Metabolic stability in rat liver microsomes assessed as half life at 1 uM preincubated for 5 mins followed by NADPH addition and measured after 5 to 60 mins by LC-MS analysis; assay type: ADME, Microsome; conditions: liver microsomes, time 10-65 min
# [5] = Metabolic stability in mouse liver microsomes assessed as intrinsic clearance at 1 uM preincubated for 5 mins followed by NADPH addition and measured after 5 to 60 mins by LC-MS analysis; assay type: ADME, Microsome; conditions: liver microsomes, time 10-65 min, read-out: CLH
# [6] = tested on: Klebsiella pneumoniae; test: Antibacterial activity against Klebsiella pneumoniae ATCC700603 assessed as reduction in bacterial growth measured after 18 to 24 hrs by CLSI protocol based method; assay type: functional; conditions: time 18-24 hrs
# [7] = Intrinsic clearance in mouse; assay type: ADME, organism-based; conditions: read-out: CLH
# [8] = Metabolic stability in human liver microsomes assessed as intrinsic clearance at 1 uM preincubated for 5 mins followed by NADPH addition and measured after 5 to 60 mins by LC-MS analysis; assay type: ADME, Microsome; conditions: time 10-65 min, read-out: CLH
# [9] = tested on: Klebsiella pneumoniae; test: Antibacterial activity against Klebsiella pneumoniae clinical isolate KPN+22-1 assessed as reduction in bacterial growth measured after 18 to 24 hrs by CLSI protocol based method; assay type: functional; conditions: time 18-24 hrs
# [10] = Intrinsic clearance in human; assay type: ADME; conditions: read-out: CLH
# [11] = tested on: Pseudomonas aeruginosa; test: Antibacterial activity against Pseudomonas aeruginosa clinical isolate PAE22-1 assessed as reduction in bacterial growth measured after 18 to 24 hrs by CLSI protocol based method; assay type: functional; conditions: time 18-24 hrs
# [12] = Metabolic stability in mouse liver microsomes assessed as half life at 1 uM preincubated for 5 mins followed by NADPH addition and measured after 5 to 60 mins by LC-MS analysis; assay type: ADME, Microsome; conditions: liver microsomes, time 10-65 min
# [13] = tested on: Escherichia coli; test: Antibacterial activity against Escherichia coli ATCC25922 assessed as reduction in bacterial growth measured after 18 to 24 hrs by CLSI protocol based method; assay type: functional; conditions: time 18-24 hrs
# [14] = Metabolic stability in rat liver microsomes assessed as intrinsic clearance at 1 uM preincubated for 5 mins followed by NADPH addition and measured after 5 to 60 mins by LC-MS analysis; assay type: ADME, Microsome; conditions: liver microsomes, time 10-65 min, read-out: CLH
Compound,CLint scaled [1],half-life at 1 µM [2],MIC [3],half-life at 1 µM [4],microsomal CLint at 1 µM [5],MIC [6],CLint scaled [7],microsomal CLint at 1 µM [8],MIC [9],CLint scaled [10],MIC [11],half-life at 1 µM [12],MIC [13],microsomal CLint at 1 µM [14]
CCC(=O)N1CCN(/N=C/c2ccc(C#Cc3ccc(C(=O)N[C@H](C(=O)NO)[C@@H](C)O)cc3)cc2)CC1,12.1 mL/min/kg,5.15 h,4 µg/mL,3.5 h,7.23 µL/min/mg,16 µg/mL,28.5 mL/min/kg,4.51 µL/min/mg,2 µg/mL,4.26 mL/min/kg,4 µg/mL,3.37 h,0.03 µg/mL,6.7 µL/min/mg
C[C@@H](O)[C@H](NC(=O)c1ccc(C#Cc2ccc(/C=N/N3CCN(S(C)(=O)=O)CC3)cc2)cc1)C(=O)NO,,,> 64 µg/mL,,,> 64 µg/mL,,,> 64 µg/mL,,> 64 µg/mL,,0.5 µg/mL,
C[C@@H](O)[C@H](NC(=O)c1ccc(C#Cc2ccc(/C=N/N3CCN(C(=O)OC(C)(C)C)CC3)cc2)cc1)C(=O)NO,,,> 64 µg/mL,,,> 64 µg/mL,,,8 µg/mL,,16 µg/mL,,1 µg/mL,
C[C@@H](O)[C@H](NC(=O)c1ccc(C#Cc2ccc(/C=N/N3CCN(C(=O)N(C)C)CC3)cc2)cc1)C(=O)NO,,,8 µg/mL,,,16 µg/mL,,,2 µg/mL,,4 µg/mL,,0.5 µg/mL,
O=C(NO)C1CN(c2ccc(C#Cc3ccc(/C=N/N4CCCC4)cc3)cc2)C(=O)O1 (stereo not drawn),,,,,,,,,> 64 µg/mL,,> 64 µg/mL,,> 64 µg/mL,
C[C@@H](O)[C@H](NC(=O)c1ccc(C#Cc2ccc(/C=N/N3CCS(=O)(=O)CC3)cc2)cc1)C(=O)NO,,,4 µg/mL,,,16 µg/mL,,,4 µg/mL,,4 µg/mL,,1 µg/mL,
C[C@@H](O)[C@H](NC(=O)c1ccc(C#Cc2ccc(/C=N/N3CCN(C4CCCC4)CC3)cc2)cc1)C(=O)NO,,,> 64 µg/mL,,,> 64 µg/mL,,,32 µg/mL,,32 µg/mL,,2 µg/mL,
C[C@@H](O)[C@H](NC(=O)c1ccc(C#Cc2ccc(/C=N/N3CCN(C)CC3)cc2)cc1)C(=O)NO,,,2 µg/mL,,,8 µg/mL,,,2 µg/mL,,2 µg/mL,,1 µg/mL,
C[C@@H](O)[C@H](NC(=O)c1ccc(C#Cc2ccc(/C=N/N3CCCCC3)cc2)cc1)C(=O)NO,,,32 µg/mL,,,32 µg/mL,,,1 µg/mL,,4 µg/mL,,0.25 µg/mL,
C[C@@H](O)[C@H](NC(=O)c1ccc(C#Cc2ccc(/C=N/N3CCCC3)nc2)cc1)C(=O)NO,,,> 64 µg/mL,,,,,,> 64 µg/mL,,4 µg/mL,,2 µg/mL,
C[C@@H](O)[C@H](NC(=O)c1ccc(C#Cc2ccc(/C=N/N3CCN(C(=O)C(C)(C)C)CC3)cc2)cc1)C(=O)NO,28.1 mL/min/kg,1.37 h,> 32 µg/mL,1.48 h,9.29 µL/min/mg,> 32 µg/mL,36.6 mL/min/kg,19.4 µL/min/mg,8 µg/mL,18.4 mL/min/kg,> 32 µg/mL,2.53 h,0.25 µg/mL,15.6 µL/min/mg
CCOC(=O)N1CCN(/N=C/c2ccc(C#Cc3ccc(C(=O)N[C@H](C(=O)NO)[C@@H](C)O)cc3)cn2)CC1,,,16 µg/mL,,,> 64 µg/mL,,,32 µg/mL,,8 µg/mL,,2 µg/mL,
O=C(NO)C1CN(c2ccc(C#Cc3ccc(/C=N/N4CCOCC4)cc3)cc2)C(=O)O1 (stereo not drawn),,,,,,,,,8 µg/mL,,> 64 µg/mL,,1 µg/mL,
